{"source": "patent US20040097473A1", "about": "“Use of p38 inhibitors for the treatment of smoke inhalation” (priority 2003, published 2004)", "key": {"[1]": {"tested_on": "Citric Acid-Induced Cough in Guinea Pigs", "experiment": "Citric Acid Induced Cough Model (direct antitussive activity)", "type": "in vivo, guinea pig", "settings": "conscious guinea pigs, inhaled citric acid (0.4% for 1 minute) cough challenge; FIG. 4", "description": "The directed antitussive activity of the compound in question if first assessed, by a 10 to 30 minute pretreatment period by intraperitoneal injection or a 1 hour pretreatment period for oral administration. The animals (guinea pigs) are then subjected to an inhaled citric acid-induced cough challenge. Inhalation of citric acid (CA; 0.4% for 1 minute) induced 11 to 15 coughs during the exposure and 12-minute monitoring period in conscious guinea pigs."}, "[2]": {"tested_on": "Antigen-Induced Hypertussive Activity to Citric Acid in Guinea Pigs", "experiment": "Antigen-Induced Hypertussive Model", "type": "in vivo, guinea pig", "settings": "sensitized guinea pigs exposed to inhaled ovalbumin", "description": "The effects of the compound are then assessed on the hypertussive response that occurs 72 hours post aerosol exposure to antigen or LTD4 exposure. Treatment of the animals occurs with the drug prior and/or after antigen or LTD4 challenge, but not on the day of citric acid challenge. Inhalation of citric acid (CA; 0.4% for 1 minute) induced 11 to 15 coughs during the exposure and 12-minute monitoring period in conscious guinea pigs."}, "[3]": {"tested_on": "LTD4-induced hypertussive response in the Guinea Pig", "experiment": "LTD4-Induced Hypertussive Model", "type": "in vivo", "settings": "oral 30 mg/kg b.i.d.; LTD4 inhalation 10 ug/ml for 1 minute; 72 hours after exposure", "description": "The effects of the compound are then assessed on the hypertussive response that occurs 72 hours post aerosol exposure to antigen or LTD4 exposure. Treatment of the animals occurs with the drug prior and/or after antigen or LTD4 challenge, but not on the day of citric acid challenge. Similarly, inhalation of LTD4 (10 ug/ml for 1 minute) increased cough incidence and airway esoinophiles 72 hours after exposure. Oral treatment with Compound I (30 mg/kg, b.i.d.), blocked the LTD4-induced esoinophilia, and normalized the cough response, as shown in FIG. 5 herein."}}}
{"smiles": "COc1nccc(-c2c(-c3ccc(F)cc3)ncn2[C@H]2CC[C@H](O)CC2)n1", "note": "[Compound I, trans-1-(4-Hydroxycyclohexyl)-4-(4-fluorophenyl)-5-[(2-methoxy)pyrimidin-4-yl]imidazole]", "values": [{"measurement": "direct antitussive effect", "setting": "[1]", "value": "no direct antitussive effect"}, {"measurement": "airway eosinophilia", "setting": "[2]; bronchoalveolar lavage", "value": "reduce airway eosinophilia"}, {"measurement": "hypertussive state (citric acid-induced cough incidence)", "setting": "[2]; citric acid challenge 72 hours post antigen", "value": "normalizes the hypertussive state"}, {"measurement": "LTD4-induced eosinophilia", "setting": "[3]", "value": "blocked"}, {"measurement": "cough response", "setting": "[3]", "value": "normalized"}]}
